Consider 29 compounds from PMC13083723 (Patterns, 2026).

For this test, the system named is Vero-E6 cells. Nature of the test: cells. The format is cell-based. The following applies: Chlorocebus sabaeus, Vero C1008, 24 h, read-out: PL_Result.

As for `Cc1cccc(Nc2ccncc2S(=O)(=O)NC(=O)NC(C)C)c1` [SPE_K30480208], the activation at 10 µM is -3.18%.

For the compound `CN1CCC[C@@H]1Cc1c[nH]c2ccc(CCS(=O)(=O)c3ccccc3)cc12` [SPE_K30652337], the activation at 10 µM is 1.82%.

Regarding `O=C(O)C(=O)c1cn(Cc2ccccc2)c2ccc(-c3ccc(OC(F)(F)F)cc3)cc12` [SPE_K30882994], the activation at 10 µM stood at 1.29%.

As to `N#Cc1ccc(N2CCN(C(=O)COc3ccc4[nH]cc(CCN)c4c3)CC2)cc1` [SPE_K31092604], the activation at 10 µM was determined as 1.38%.

In the case of `Nn1cnc2cc3ccccc3cc2c1=O` [SPE_K31329721], the activation at 10 µM was -8.33%.

As to `Cc1c(-c2ccnn2C)cc(C(=O)NCc2ccc(S(C)(=O)=O)cn2)c(=O)n1-c1cccc(C(F)(F)F)c1` [SPE_K31476763], the activation at 10 µM is -9.37%.

As for `COc1nc(C)cnc1NS(=O)(=O)c1cccnc1-c1ccc(-c2nnco2)cc1` [SPE_K31553034], the activation at 10 µM is -4.16%.

`Fc1ccc(CN2CCC(Nc3ccc(C(F)(F)F)nn3)CC2)cc1F` [SPE_K31802667]: the activation at 10 µM was found to be 4.7%.

Consider `O=C1N=C2NN=CC2C(=O)N1` (centres unmarked) [SPE_K31841515], for which the activation at 10 µM came out at 2.22%.

Take `N#Cc1c(Oc2ccc(F)c(NC(=O)Cc3cccc(C(F)(F)F)c3)c2)ccc2nc(NC(=O)C3CC3)sc12` [SPE_K31866293]: the activation at 10 µM was 1.45%.

On to `CCN(CCCOc1ccc2c(Nc3cc(CC(=O)Nc4cccc(F)c4)[nH]n3)ncnc2c1)CCOP(=O)(O)O` [SPE_K31928526], for which the activation at 10 µM is -11.2%.

Turning to `CCCCCCCCCCCCCCCCCCCCCC(=O)Nc1ccn([C@@H]2O[C@H](CO)[C@@H](O)[C@@H]2O)c(=O)n1` [SPE_K32007074], the activation at 10 µM is -0.592%.

Turning to `Nc1ccc(S(=O)(=O)Nc2ccc(Cl)nn2)cc1` [SPE_K32021043], the activation at 10 µM was determined as 5.81%.

In the case of `Cc1ccc(S(=O)(=O)NC(=O)NN2CCCCCC2)cc1` [SPE_K32164935], the activation at 10 µM was -1.35%.

For the compound `Fc1ccc(C(OCCN2CCN(CCCc3ccccc3)CC2)c2ccc(F)cc2)cc1` [SPE_K32501161], the activation at 10 µM is -3.21%.

As to `CCN(CC)C(=S)SSC(=S)N(CC)CC` [SPE_K32744045], the activation at 10 µM was determined as 5.11%.

Take `O=C(O)CCNc1cc(N2CCc3ccccc3CC2)nc(-c2ccccn2)n1` [SPE_K32847255]: the activation at 10 µM is -5.77%.

`CNCCc1ccc(O)c(O)c1` [SPE_K33151569]: the activation at 10 µM is -7.82%.

Regarding `CC(=O)Nc1ccc(CC(=O)O)cc1` [SPE_K33483813], the activation at 10 µM was 2.74%.

Turning to `CCOC(=O)c1ncc2[nH]c3ccc(OCc4ccccc4)cc3c2c1COC` [SPE_K33882852], the activation at 10 µM was -9.36%.

Turning to `Cc1coc2c1C(=O)C(=O)c1c-2ccc2c(C)cccc12` [SPE_K34073885], the activation at 10 µM is 1.44%.

On to `CC(=O)Nc1nc2c(Oc3cc(-c4ccc(C(F)(F)F)cc4)ncn3)cccc2s1` [SPE_K34185671], for which the activation at 10 µM is -12.4%.

On to `CC(C)(C)NC[C@H](O)c1ccc(O)c(CO)c1` [SPE_K34469523], for which the activation at 10 µM was -6.61%.

For `CC[C@@H](CO)NC(=O)[C@@H]1C=C2c3cccc4[nH]cc(c34)C[C@H]2N(C)C1` [SPE_K34685430], the activation at 10 µM is -5.04%.

As for `Cc1ccc(C(=O)Nc2ccc(CN3CCN(C)CC3)c(C(F)(F)F)c2)cc1C#Cc1cnc2[nH]ncc2c1` [SPE_K35329391], the activation at 10 µM was -3.83%.

In the case of `Cc1c(Cl)cccc1S(=O)(=O)Nc1nc(NCCc2ccccc2)nc2c1CN(Cc1ccccc1)CC2` [SPE_K35772771], the activation at 10 µM was -25%.

Regarding `C[C@@H]1CN(CC(=O)Nc2ccc3c(c2)Cc2cccc(-c4cc(=O)cc(N5CCOCC5)o4)c2S3)C[C@H](C)O1` [SPE_K36016295], the activation at 10 µM is 15.1%.

On to `CN(C)C(=N)NCCC[C@H](N)C(=O)O` [SPE_K36269323], for which the activation at 10 µM was -6.39%.

Consider `Cc1ccc2nc(N)nc(O)c2c1Sc1ccncc1` [SPE_K36636143], for which the activation at 10 µM was determined as 2.73%.
